In US20050136006A1, “Quantitative assay of the angiogenic and antiangiogenic activity of a test molecule” (Government of the U.S.A.,represented by the Secretary, …, priority 2002, published 2005):
Several values for one entry are separate records, joined by “and”; a condition that tells them apart may be missing. Equal entries are not always repeated.

Columns and labels:
[1] = tested on: filter discs and associated CAM tissue; assay: CAM assay scored from light microscopic photographs by blinded observers; format: in vivo, chicken; design: scale not given here; details: for Score: individual discs
Method: However, instead of using laser confocal microscopy to determine an FVD value for a test region of interest, the filter discs and associated CAM tissue were photographed under light microscopy. The light microscopic photographs were evaluated independently by three blinded observers, all experts in the study of angiogenesis. […] If the blinded observer felt that a disc had too much hemorrhage or artifact to make an accurate assessment of angiogenesis, it was eliminated from that observer's assessment (represented by a “-” in Tables 2-4).

[2] = tested on: endothelial cell proliferation in the CAM; assay: CAM-XTT cell proliferation assay, spectrophotometrical absorbance; format: in vivo, chicken; details: FGF 2.0 μg/mL disc; systemic 100 μM Fumagillin or 3 mg/mL LM609; relative to FGF + 0.1% DMSO carrier
Method: Ten 10-day old eggs were divided into four groups and prepared as in Example 1. The eggs received (A) filter disks saturated with a vehicle solution (0.1% bovine serum albumin (BSA)/phosphate-buffered saline (PBS)) and systemic injection of a carrier solution (0.1% DMSO), (B) filter disks saturated with a stimulator solution (2.0 μg/mL FGF) and systemic injection of carrier solution (0.1% DMSO), (C) filter disks saturated with a stimulator solution (2.0 μg/mL FGF) and systemic injection of an inhibitor (100 μM Fumagillin), or (D) filter disks saturated with a stimulator solution (2.0 μg/mL FGF) and systemic injection of an inhibitor (3 mg/mL LM609). […]
XTT is a tetrazolium salt, which is reduced within the mitochondria of metabolically active cells to form a colored formazan dye. The amount of formazan dye produced is quantitatively measured by spectrophotometrical absorbance (e.g., by an ELISA plate reader) at 450-500 nm. […]
5 mL of XTT labeling reagent and 0.1 mL electron coupling reagent were mixed together and 30 μL of the mixture was applied onto the CAM disk via pipette. […] At Day 13, the disks were harvested for light photomicroscopy and the mean spectrophotometrical absorbance at 450 nm was measured (reference wavelength 620 nm (Titertek Multiskan Ascent Plate Reader)).

[3] = tested on: chorioallantoic membrane tissue of an embryonated chicken egg; assay: Modified CAM assay, fluorescent vascular density (FVD) by laser confocal microscopy after FITC-Dextran injection; format: in vivo; design: FVD Group Mean / FVD: scale not given here; details: for FVD: individual eggs
Method: Eighteen 10-day-old embryonated chicken eggs were obtained. A window was made in the shell of each egg. The chorioallantoic membranes were dropped to allow placement of a filter paper disc saturated with either basic fibroblast growth factor (bFGF) (1 μg/ml), as an angiogenic stimulator, or with a control solution (Clonetics EBM-2 media, Bio-Whittaker, Walersville, Md.). Twenty-four hours were allowed to elapse and a vessel was cannulated in each egg. Embryos that had received a filter disc saturated with bFGF then received a systemic injection of either Fumagillin (5 μg/egg, Calbiochem, San Diego, Calif.) in 0.1% dimethyl sulfoxide (DMSO) (Group A, n=3), or an injection of 0.1% DMSO carrier alone (Group B, n=5). Fumagillin is an organic compound with established antiangiogenic effects (see, e.g., Ingber et al., Nature, 348:555-557 (1990)). Embryos that had received a filter disc saturated with the control molecule received 0. 1% DMSO carrier injected systemically (Group C, n=10).
Forty-eight hours were allowed to elapse, and all eggs then received a systemic injection of fluorescein isothiocyanate (FITC)-Dextran (1 mg/ml), which was allowed to circulate for 30 minutes. Filter discs and associated CAM tissue (i.e., the region of interest) were excised from the egg and preserved in 10% formalin. The filter disc and region of interest were then laid out on a glass microscope slide and viewed using a laser confocal microscope (LSM 510 Laser Scanning Microscope, Carl Zeiss, Inc., Thronwood, N.Y.). The filter disc and region of interest were stimulated with an argon laser emitting at a wavelength of 488 nm. The resultant excitation was read using fluorescence filters at wavelengths of 505 nm and greater. The image was captured using LSM 5 Pascal software (Carl Zeiss, Inc.), through a microscope objective of 1.25×. The capture image data was formatted as 1024 pixels wide by 1024 pixels long, resulting in an overall image of 1,048,576 pixels, each with a brightness measured on a scale from 0 to 255. Multiple cross-sectional images were taken along a three-dimensional z-axis at 200 micron intervals through each filter disc and region of interest from each egg. Each filter disc and region of interest was thereby determined to have a fluorescent vascular density reflective of the density of vasculature of the CAM tissue associated with the filter disc. One filter disc in Group C was eliminated from analysis owing to gross extravasation of fluorescein, rendering it unreadable (represented by “-” in Table 1).

[4] = Table 2, one blinded observer, Group A: bFGF disc + Fumagillin 5 μg/egg
[5] = Table 3, one blinded observer, Group A: bFGF disc + Fumagillin 5 μg/egg
[6] = Table 4, one blinded observer, Group A: bFGF disc + Fumagillin 5 μg/egg
[7] = Table 2, one blinded observer, Group B: bFGF disc + 0.1% DMSO carrier
[8] = Table 3, one blinded observer, Group B: bFGF disc + 0.1% DMSO carrier
[9] = Table 4, one blinded observer, Group B: bFGF disc + 0.1% DMSO carrier

| Compound | Score Group Mean [1, 4] | Score [1, 4] | Score Group Mean [1, 5] | Score [1, 5] | Score Group Mean [1, 6] | Score [1, 6] | effect on spectrophotometrical absorbance (450 nm) of FGF-stimulated specimens [2] | FVD ([3]; Treatment Group A: bFGF (1 μg/ml) filter disc, systemic Fumagillin 5 μg/egg in 0.1% DMSO, 48 h) | FVD Group Mean ([3]; Treatment Group A: bFGF (1 μg/ml) filter disc, systemic Fumagillin 5 μg/egg in 0.1% DMSO, n=3) | effect on fluorescent vascular density of bFGF-stimulated specimens ([3]; systemic injection, on average, relative to bFGF stimulation + control molecule (Group B)) | Score Group Mean [1, 7] | Score [1, 7] | Score Group Mean [1, 8] | Score [1, 8] | Score Group Mean [1, 9] | Score [1, 9] | FVD ([3]; Treatment Group B: bFGF (1 μg/ml) filter disc, systemic 0.1% DMSO carrier alone) | FVD Group Mean ([3]; Treatment Group B: bFGF (1 μg/ml) filter disc, systemic 0.1% DMSO carrier alone, n=5) |
| --- | --- | --- | --- | --- | --- | --- | --- | --- | --- | --- | --- | --- | --- | --- | --- | --- | --- | --- |
| CO[C@@H]1[C@H](OC(=O)/C=C/C=C/C=C/C=C/C(=O)O)CC[C@]2(CO2)[C@H]1[C@@]1(C)O[C@@H]1CC=C(C)C [Fumagillin] | 2 | 2 | 2.7 | 2 and 3 (2×) | 2 | 3 and 2 and 1 | reduced the spectrophotometrical absorbance | 0.0673 and 0.0533 and 1.5029 | 0.5412 | reduce the fluorescent vascular density | – | – | – | – | – | – | – | – |
| basic fibroblast growth factor [bFGF] | – | – | – | – | – | – | – | – | – | – | 1.8 | 2 (2×) and 3 and 1 (2×) | 2.4 | 2 and 3 (3×) and 1 | 2.2 | 2 (2×) and 3 (2×) and 1 | 2.5401 and 3.7715 and 1.9767 and 0.6873 and 2.6344 | 2.322 |
